{"source": "patent US6469037B2", "about": "“Prophylactic or therapeutic drug for renal diseases” (Takeda Chemical Industries, Ltd., priority 1993, dated 2002)", "key": {"[1]": {"assay": "in vivo", "details": "both sexes, po", "method": "Acute Toxicity Test Compound 1: (±)-1-(cyclohexyloxycarbonyloxy)ethyl 2-ethoxy-1-[[2′-(1H-tetrazole-5-yl)biphenyl-4-yl]methyl]-1H-benzimidazole-7-carboxylate The LD50 of compound 1 is 2,000 mg/kg or more for 4-week-old Jcl:ICR mice (males and females) and for 5-week-old Jcl:Wister rats (males and females) via single oral administration."}, "[2]": {"system": "rats with subtotally (5/6) nephrectomy", "assay": "Antiproteinuric action in rats with subtotally (5/6) nephrectomy (focal glomerulosclerosis model)", "type": "in vivo", "from_the_text": "Antiproteinuric action in rats with subtotally (5/6) nephrectomy (focal glomerulorsclerosis model; Meyer, T. W. and Renake, H. G.: Am. J. Physiol. 254, F856 (1988) or Yoshioka, T., Shiraga, H., Yoshida, Y., Fogo. A., Glick, A. D.: J. Clin. Invest. 82, 1614 (1988)) Compound 1: (±)-1-(cyclohexyloxycarbonyloxy)ethyl 2-ethoxy-1-[[2′-(1H-tetrazole-5-yl)biphenyl-4-yl]methyl]-1H-benzmidazole-7-carboxylate Method: Five-week-old male rats were anesthetized by intraperitoneal injection of pentobarbital sodium and ⅔ of the right kidney was removed. One week later, the entire left kidney was removed under similar anesthesia. After two-week breeding, 24-hour urine was collected and the total protein content and albumin content in the urine were determined by the use of A/G-B test (Wako Pure Chemistry Co., Ltd.). On the basis of urinary protein and blood pressure (BP), the rats were divided into two groups (vehicle-treated rats and rats treated with 1 mg/kg/day, p.o. of compound 1). Rats undergoing nephrectomy of the left kidney alone were also used as sham operated rats. Compound 1 was suspended in gum-arabic and the suspension was orally administered once a day for eight weeks. At the 2nd, 4th, 6th and 8th week of the treatment, 24-hour urine was collected. Results: Table 1 summarizes the results. Urinary total protein and albumin began to markedly increase in vehicle-treated rats two weeks after surgery. […] Since compound 1 suppresses aggravation of renal impairment, its efficacy in glomerulonephritis or diabetic nephropathy is expected."}, "[3]": {"system": "Wistar fatty rats", "assay": "Antiproteinuric action in rats with non-insulin-dependent diabetes (Wistar fatty rats)", "type": "in vivo", "from_the_text": "Antiproteinuric action in rats with non-insulin-dependent (NIDD) diabetes (Wistar fatty rats) (Ikeda, H., Shino, A., Matsuo, T., Iwatsuka, H., and Suzuoki, Z.: Diabetes, 30, 1045 (1981) or Kava, R. A., West, D. B., Lukasik, V. A., and Greenwood, M. R. C: Diabetes, 38,159 (1989) Compound 1: (±)-1-(cyclohexyloxycarbonyloxy)ethyl 2-ethoxy-1-[[2′-(1H-tetrazole-5-yl)biphenyl-4-yl]methyl]-1H-benzimidazole-7-carboxylate Method: On the basis of blood glucose level and urinary protein content, 11-week-old Wistar fatty rats were divided into two groups (vehicle-treated rats and rats treated with 1 mg/kg/day, p.o. of compound 1). Non-diabetic control rats (lean rats) were also used. Compound 1 was suspended in gum-arabic and the suspension was orally administered once a day for ten weeks. At the 2nd, 4th, 6th, 8th and 10th week of the treatment, 24 hour urine was collected. The urine was centrifuged at 3,000 rpm and a portion of the supernatant was desalted on a column (Pharmacia PD10). Urinary total protein content and albumin content were determined by Lowry and ELISA methods, respectively. Results: Table 2 summarizes the results. Urinary total protein content increased in vehicle-treated rats to about three times of the value in lean rats. This increase, however, was reduced to 1.2-1.5 times by the-treatment with compound 1. […] This increase, however, was reduced to 20-30 times by the treatment with compound 1. […] In non-insulin-dependent diabetic models, compound 1 is expected to be effective against diabetic nephropathy by decreasing the urinary protein without affecting the blood glucose level."}, "[4]": {"details": "2 weeks after the first dose, 1 mg/kg/day p.o., mean ± standard error"}, "[5]": {"details": "4 weeks after the first dose, 1 mg/kg/day p.o., mean ± standard error"}, "[6]": {"details": "6 weeks after the first dose, 1 mg/kg/day p.o., mean ± standard error"}, "[7]": {"details": "8 weeks after the first dose, 1 mg/kg/day p.o., mean ± standard error"}, "[8]": {"details": "Preadministration (baseline), 5/6 nephrectomized rats, n = 9, mean ± standard error"}, "[9]": {"details": "age 11 weeks (start of treatment, baseline), Wistar fatty rats, n = 6, mean ± standard error"}, "[10]": {"details": "age 13 weeks, 1 mg/kg/day p.o., mean ± standard error"}, "[11]": {"details": "age 15 weeks, 1 mg/kg/day p.o., mean ± standard error"}, "[12]": {"details": "age 17 weeks, 1 mg/kg/day p.o., mean ± standard error"}, "[13]": {"details": "age 19 weeks, 1 mg/kg/day p.o., mean ± standard error"}, "[14]": {"details": "age 21 weeks, 1 mg/kg/day p.o., mean ± standard error"}}}
{"compound": "CCOc1nc2cccc(C(=O)OC(C)OC(=O)OC3CCCCC3)c2n1Cc1ccc(-c2ccccc2-c2nnn[nH]2)cc1", "note": "(racemic) [Compound 1, (±)-1-(cyclohexyloxycarbonyloxy)ethyl 2-ethoxy-1-[[2′-(1H-tetrazole-5-yl)biphenyl-4-yl]methyl]-1H-benzimidazole-7-carboxylate]", "values": [{"measurement": "LD50", "setting": "[1]; Jcl:ICR, mouse", "value": "≥ 2000", "unit": "mg/kg"}, {"measurement": "LD50", "setting": "[1]; Jcl:Wister, rat", "value": "≥ 2000", "unit": "mg/kg"}, {"measurement": "Urinary albumin", "setting": "[2]; [4]", "value": "6.3 ± 2.9", "unit": "mg/100 g/24 hr"}, {"measurement": "Urinary total protein", "setting": "[2]; [4]", "value": "30.9 ± 5.2", "unit": "mg/100 g/24 hr"}, {"measurement": "Urinary albumin", "setting": "[2]; [5]", "value": "6.8 ± 3.4", "unit": "mg/100 g/24 hr"}, {"measurement": "Urinary total protein", "setting": "[2]; [5]", "value": "27.7 ± 4.0", "unit": "mg/100 g/24 hr"}, {"measurement": "Urinary total protein and albumin (course versus vehicle-treated rats)", "setting": "[2]; 5/6 nephrectomized rats, 1 mg/kg/day p.o. for eight weeks", "value": "these parameters did not increase"}, {"measurement": "Urinary albumin", "setting": "[2]; [6]", "value": "7.4 ± 4.0", "unit": "mg/100 g/24 hr"}, {"measurement": "Urinary total protein", "setting": "[2]; [6]", "value": "17.6 ± 5.6", "unit": "mg/100 g/24 hr"}, {"measurement": "Urinary albumin", "setting": "[2]; [7]", "value": "5.6 ± 2.7", "unit": "mg/100 g/24 hr"}, {"measurement": "Urinary total protein", "setting": "[2]; [7]", "value": "24.4 ± 2.7", "unit": "mg/100 g/24 hr"}, {"measurement": "Urinary albumin", "setting": "[2]; [8]", "value": "7.3 ± 2.3", "unit": "mg/100 g/24 hr"}, {"measurement": "Urinary total protein", "setting": "[2]; [8]", "value": "32.8 ± 5.4", "unit": "mg/100 g/24 hr"}, {"measurement": "Effect on blood glucose level", "setting": "[3]; Wistar fatty rats, 1 mg/kg/day p.o.", "value": "did not affect blood glucose level"}, {"measurement": "Urinary albumin content relative to the value in lean rats", "setting": "[3]; Wistar fatty rats, 1 mg/kg/day p.o., vehicle-treated about 100 times", "value": "20-30 times"}, {"measurement": "Urinary total protein content relative to the value in lean rats", "setting": "[3]; Wistar fatty rats, 1 mg/kg/day p.o., vehicle-treated about three times", "value": "1.2-1.5 times"}, {"measurement": "Urinary albumin", "setting": "[3]; [9]", "value": "6.5 ± 0.4", "unit": "mg/24 hr"}, {"measurement": "Urinary total protein", "setting": "[3]; [9]", "value": "101 ± 6", "unit": "mg/24 hr"}, {"measurement": "Urinary albumin", "setting": "[3]; [10]", "value": "11.2 ± 3.9", "unit": "mg/24 hr"}, {"measurement": "Urinary total protein", "setting": "[3]; [10]", "value": "69 ± 11", "unit": "mg/24 hr"}, {"measurement": "Urinary albumin", "setting": "[3]; [11]", "value": "14.8 ± 6.1", "unit": "mg/24 hr"}, {"measurement": "Urinary total protein", "setting": "[3]; [11]", "value": "91 ± 12", "unit": "mg/24 hr"}, {"measurement": "Urinary albumin", "setting": "[3]; [12]", "value": "21.8 ± 8.2", "unit": "mg/24 hr"}, {"measurement": "Urinary total protein", "setting": "[3]; [12]", "value": "97 ± 11", "unit": "mg/24 hr"}, {"measurement": "Urinary albumin", "setting": "[3]; [13]", "value": "10.7 ± 3.9", "unit": "mg/24 hr"}, {"measurement": "Urinary total protein", "setting": "[3]; [13]", "value": "79 ± 10", "unit": "mg/24 hr"}, {"measurement": "Urinary albumin", "setting": "[3]; [14]", "value": "15.4 ± 3.7", "unit": "mg/24 hr"}, {"measurement": "Urinary total protein", "setting": "[3]; [14]", "value": "74 ± 13", "unit": "mg/24 hr"}]}
